Laboratory results as given in patent publication US20140000883A1, “PETROLEUM RECOVERY PROCESS AND SYSTEM” (Shell Oil Company, priority 2012, published 2014).

Columns and labels:
[1] = SARA analysis of extracted bitumen samples; settings: bitumen extracted at 30° C.
Protocol: The bitumen samples extracted at 30° C. from each oil sands sample were evaluated by SARA analysis to determine the saturates, aromatics, resins, and asphaltenes composition of the bitumen samples extracted by each solvent.

[2] = Viscosity of crude blended with dimethyl sulfide (rheometer); format: physicochemical
Protocol: The quality of dimethyl sulfide as an oil recovery agent based on the crude oil viscosity lowering properties of dimethyl sulfide was evalulated. Three crude oils having widely disparate viscosity characteristics—an African Waxy crude, a Middle Eastern asphaltic crude, and a Canadian asphaltic crude—were blended with dimethyl sulfide.
A control sample of each crude was prepared containing no dimethyl sulfide, and samples of each crude were prepared and blended with dimethyl sulfide to prepare crude samples containing increasing concentrations of dimethyl sulfide. Each sample of each of the crudes was heated to 60° C. to dissolve any waxes therein and to permit weighing of a homogeneous liquid, weighed, allowed to cool overnight, then blended with a selected quantity of dimethyl sulfide. The samples of the crude/dimethyl sulfide blend were then heated to 60° C. and mixed to ensure homogeneous blending of the dimethyl sulfide in the samples. Absolute (dynamic) viscosity measurements of each of the samples were taken using a rheometer and closed cup sensor assembly. Viscosity measurements of each of the samples of the West African waxy crude and the Middle Eastern asphaltic crude were taken at 20° C., 40° C., 60° C., 80° C., and then again at 20° C. after cooling from 80° C., where the second measurement at 20° C. is taken to measure the viscosity without the presence of waxes since wax formation occurs slowly enough to permit viscosity measurement at 20° C. without the presence of wax. Viscosity measurements of each of the samples of the Canadian asphaltic crude were taken at 5° C., 10° C., 20° C., 40° C., 60° C., 80° C., The measured viscosities for each of the crudes are shown in Tables 4, 5, and 6 below.

[3] = Extraction of mined oil sands with solvents (bitumen recovery); settings: for Recovered Bitumen: not corrected for residual solvent;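 for Recovered Bitumen: Bitumen mass includes 3 to 7 wt% residual solvent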
Protocol: The quality of dimethyl sulfide as an oil recovery agent based on the miscibility of dimethyl sulfide with a crude oil relative to other compounds was evaluated. […] Each oil sands sample was weighed and placed in a cellulose extraction thimble that was placed on a porous polyethylene support disk in a jacketed glass cylinder with a drip rate control valve. Each oil sands sample was then extracted with a selected solvent at a selected temperature (10° C. or 30° C.) in a cyclic contact and drain experiment, where the contact time ranged from 15 to 60 minutes. Fresh contacting solvent was applied and the cyclic extraction repeated until the fluid drained from the apparatus became pale brown in color.
The extracted fluids were stripped of solvent using a rotary evaporator and thereafter vacuum dried to remove residual solvent. […] The residual solids and extraction thimble were air dried, weighed, and then vacuum dried. […] Collectively, the weight of the solid or sample and thimble recovered after extraction plus the quantity of bitumen recovered after extraction divided by the weight of the initial oil sands sample plus the thimble provide the mass closure for the extractions.

Compound: CSC [Dimethyl Sulfide, dimethyl sulfide]
- extraction of / miscibility with asphaltenes [1]: excellent miscibility properties
- Viscosity ([2]; DMS 1.21 wt. %, 20° C.): 125.8 mPa s
- Viscosity ([2]; DMS 1.21 wt. %, 20° C. after cooling from 80° C.): 100.1 mPa s
- Viscosity ([2]; DMS 1.21 wt. %, 40° C.): 30.94 mPa s
- Viscosity ([2]; DMS 1.21 wt. %, 60° C.): 14.66 mPa s
- Viscosity ([2]; DMS 1.21 wt. %, 80° C.): 8.92 mPa s
- Viscosity ([2]; DMS 1.3 wt. %, 20° C.): 1733.8 mPa s
- Viscosity ([2]; DMS 1.3 wt. %, 20° C. after cooling from 80° C.): 1624.8 mPa s
- Viscosity ([2]; DMS 1.3 wt. %, 40° C.): 334.5 mPa s
- Viscosity ([2]; DMS 1.3 wt. %, 60° C.): 106.7 mPa s
- Viscosity ([2]; DMS 1.3 wt. %, 80° C.): 44.6 mPa s
- Viscosity ([2]; DMS 2.48 wt. %, 20° C.): 122.3 mPa s
- Viscosity ([2]; DMS 2.48 wt. %, 20° C. after cooling from 80° C.): 89.23 mPa s
- Viscosity ([2]; DMS 2.48 wt. %, 40° C.): 30.53 mPa s
- Viscosity ([2]; DMS 2.48 wt. %, 60° C.): 13.66 mPa s
- Viscosity ([2]; DMS 2.48 wt. %, 80° C.): 8.44 mPa s
- Viscosity ([2]; DMS 2.6 wt. %, 20° C.): 1026.6 mPa s
- Viscosity ([2]; DMS 2.6 wt. %, 20° C. after cooling from 80° C.): 881.1 mPa s
- Viscosity ([2]; DMS 2.6 wt. %, 40° C.): 219.9 mPa s
- Viscosity ([2]; DMS 2.6 wt. %, 60° C.): 76.5 mPa s
- Viscosity ([2]; DMS 2.6 wt. %, 80° C.): 34.3 mPa s
- Viscosity ([2]; DMS 5.03 wt. %, 20° C.): 78.37 mPa s
- Viscosity ([2]; DMS 5.03 wt. %, 20° C. after cooling from 80° C.): 55.21 mPa s
- Viscosity ([2]; DMS 5.03 wt. %, 40° C.): 20.24 mPa s
- Viscosity ([2]; DMS 5.03 wt. %, 60° C.): 10.45 mPa s
- Viscosity ([2]; DMS 5.03 wt. %, 80° C.): 6.55 mPa s
- Viscosity ([2]; DMS 5.3 wt. %, 20° C.): 496.5 mPa s
- Viscosity ([2]; DMS 5.3 wt. %, 20° C. after cooling from 80° C.): 503.5 mPa s
- Viscosity ([2]; DMS 5.3 wt. %, 40° C.): 134.2 mPa s
- Viscosity ([2]; DMS 5.3 wt. %, 60° C.): 52.2 mPa s
- Viscosity ([2]; DMS 5.3 wt. %, 80° C.): 25.5 mPa s
- Viscosity ([2]; DMS 7.6 wt. %, 20° C.): 288.0 mPa s
- Viscosity ([2]; DMS 7.60 wt. %, 20° C.): 60.92 mPa s
- Viscosity ([2]; DMS 7.6 wt. %, 20° C. after cooling from 80° C.): 290.0 mPa s
- Viscosity ([2]; DMS 7.60 wt. %, 20° C. after cooling from 80° C.): 40.89 mPa s
- Viscosity ([2]; DMS 7.6 wt. %, 40° C.): 89.4 mPa s
- Viscosity ([2]; DMS 7.60 wt. %, 40° C.): 17.08 mPa s
- Viscosity ([2]; DMS 7.6 wt. %, 60° C.): 37.4 mPa s
- Viscosity ([2]; DMS 7.60 wt. %, 60° C.): 9.29 mPa s
- Viscosity ([2]; DMS 7.6 wt. %, 80° C.): 19.3 mPa s
- Viscosity ([2]; DMS 7.60 wt. %, 80° C.): 6.09 mPa s
- Viscosity ([2]; DMS 8.01 wt. %, 20° C.): 5799 mPa s
- Viscosity ([2]; DMS 8.01 wt. %, 40° C.): 982 mPa s
- Viscosity ([2]; DMS 8.01 wt. %, 60° C.): 275 mPa s
- Viscosity ([2]; DMS 8.01 wt. %, 80° C.): 106 mPa s
- Viscosity ([2]; DMS 9.80 wt. %, 20° C.): 2760 mPa s
- Viscosity ([2]; DMS 9.80 wt. %, 40° C.): 571 mPa s
- Viscosity ([2]; DMS 9.80 wt. %, 60° C.): 173 mPa s
- Viscosity ([2]; DMS 9.80 wt. %, 80° C.): 73 mPa s
- Viscosity ([2]; DMS 9.95 wt. %, 20° C.): 44.70 mPa s
- Viscosity ([2]; DMS 9.95 wt. %, 20° C. after cooling from 80° C.): 30.61 mPa s
- Viscosity ([2]; DMS 9.95 wt. %, 40° C.): 13.03 mPa s
- Viscosity ([2]; DMS 9.95 wt. %, 60° C.): 7.58 mPa s
- Viscosity ([2]; DMS 9.95 wt. %, 80° C.): 5.04 mPa s
- Viscosity ([2]; DMS 10.1 wt. %, 20° C.): 150.0 mPa s
- Viscosity ([2]; DMS 10.1 wt. %, 20° C. after cooling from 80° C.): 150.5 mPa s
- Viscosity ([2]; DMS 10.1 wt. %, 40° C.): 52.4 mPa s
- Viscosity ([2]; DMS 10.1 wt. %, 60° C.): 24.5 mPa s
- Viscosity ([2]; DMS 10.1 wt. %, 80° C.): 13.5 mPa s
- Viscosity ([2]; DMS 14.81 wt. %, 5° C.): 1794 mPa s
- Viscosity ([2]; DMS 14.81 wt. %, 10° C.): 1155 mPa s
- Viscosity ([2]; DMS 14.81 wt. %, 20° C.): 548 mPa s
- Viscosity ([2]; DMS 14.81 wt. %, 40° C.): 159 mPa s
- Viscosity ([2]; DMS 14.81 wt. %, 60° C.): 64 mPa s
- Viscosity ([2]; DMS 14.81 wt. %, 80° C.): 32 mPa s
- Viscosity ([2]; DMS 15.13 wt. %, 20° C.): 23.96 mPa s
- Viscosity ([2]; DMS 15.13 wt. %, 20° C. after cooling from 80° C.): 17.64 mPa s
- Viscosity ([2]; DMS 15.13 wt. %, 40° C.): 8.32 mPa s
- Viscosity ([2]; DMS 15.13 wt. %, 60° C.): 4.97 mPa s
- Viscosity ([2]; DMS 15.13 wt. %, 80° C.): 3.38 mPa s
- Viscosity ([2]; DMS 15.2 wt. %, 20° C.): 59.4 mPa s
- Viscosity ([2]; DMS 15.2 wt. %, 20° C. after cooling from 80° C.): 60.7 mPa s
- Viscosity ([2]; DMS 15.2 wt. %, 40° C.): 25.2 mPa s
- Viscosity ([2]; DMS 15.2 wt. %, 60° C.): 13.6 mPa s
- Viscosity ([2]; DMS 15.2 wt. %, 80° C.): 8.2 mPa s
- Viscosity ([2]; DMS 19.30 wt. %, 20° C.): 15.26 mPa s
- Viscosity ([2]; DMS 19.30 wt. %, 20° C. after cooling from 80° C.): 12.06 mPa s
- Viscosity ([2]; DMS 19.30 wt. %, 40° C.): 6.25 mPa s
- Viscosity ([2]; DMS 19.30 wt. %, 60° C.): 4.05 mPa s
- Viscosity ([2]; DMS 19.30 wt. %, 80° C.): 2.92 mPa s
- Viscosity ([2]; DMS 19.78 wt. %, 20° C.): 188 mPa s
- Viscosity ([2]; DMS 19.78 wt. %, 40° C.): 69 mPa s
- Viscosity ([2]; DMS 19.78 wt. %, 60° C.): 33 mPa s
- Viscosity ([2]; DMS 19.78 wt. %, 80° C.): 19 mPa s
- Viscosity ([2]; DMS 20.1 wt. %, 20° C.): 29.9 mPa s
- Viscosity ([2]; DMS 20.1 wt. %, 20° C. after cooling from 80° C.): 31.0 mPa s
- Viscosity ([2]; DMS 20.1 wt. %, 40° C.): 14.8 mPa s
- Viscosity ([2]; DMS 20.1 wt. %, 60° C.): 8.7 mPa s
- Viscosity ([2]; DMS 20.1 wt. %, 80° C.): 5.7 mPa s
- Viscosity ([2]; DMS 29.88 wt. %, 5° C.): 113 mPa s
- Viscosity ([2]; DMS 29.88 wt. %, 10° C.): 81 mPa s
- Viscosity ([2]; DMS 29.88 wt. %, 20° C.): 51 mPa s
- Viscosity ([2]; DMS 29.88 wt. %, 40° C.): 22 mPa s
- Viscosity ([2]; DMS 29.88 wt. %, 60° C.): 13 mPa s
- Viscosity ([2]; DMS 29.88 wt. %, 80° C.): 8 mPa s
- Viscosity ([2]; DMS 39.61 wt. %, 5° C.): 23 mPa s
- Viscosity ([2]; DMS 39.61 wt. %, 10° C.): 20 mPa s
- Viscosity ([2]; DMS 39.61 wt. %, 20° C.): 14 mPa s
- Viscosity ([2]; DMS 39.61 wt. %, 40° C.): 8 mPa s
- Viscosity ([2]; DMS 39.61 wt. %, 60° C.): 6 mPa s
- Viscosity ([2]; DMS 39.61 wt. %, 80° C.): 4 mPa s
- lowering the viscosity of a crude oil ([2]; three crudes, wide range of initial viscosities): effective for significantly lowering the viscosity
- recovering bitumen from an oil sand material, compared with the best known fluids ([3]; 10° C. and 30° C.): comparable
- Weight Change ([3]; extraction at 10 C.): 16.9 g
- Recovered Bitumen ([3]; extraction at 10 C.): 16.55 g
- Weight Change ([3]; extraction at 30 C.): 16.7 g
- Recovered Bitumen ([3]; extraction at 30 C.): 16.29 g
